Assay results from paper PMC4428071, “Structural basis for epitope masking and strain specificity of a conserved epitope in an intrinsically disordered malaria vaccine candidate” (Scientific Reports, 2015).

Experiments:
mAb 6D8 = experiment: SPR binding of synthetic MSP2 peptides to immobilized (captured) mAb 6D8; design: species or system mouse; conditions: for Kd: Biacore T200, mAb 6D8 captured with Mouse Antibody Capture kit, peptides in 20 mM HEPES, 150 mM NaCl, 3 mM EDTA, 0.05 % Tween20, pH 7.4, from concentration dependence of steady-state responses, ± standard deviation of three replicate experiments; for Binding to immobilized mAb 6D8 (in words): at up to 1 μM peptide concentration
Experimental: To explore the structural basis of epitope masking, it was necessary to first define the minimal epitope of mAb 6D8. […]
(§1) mM scale) using a three-fold equivalent of FMOC-protected amino acid, HCTU and DIPEA in DMF per cycle. Each amino acid coupling was carried out for 30 min at room temperature with continuous shaking. Chain deprotection was carried out in 50% piperidine in DMF for 2 min. Each step in the cycle was terminated with an extensive DMF wash. Peptides were N-terminally acetylated after the last coupling and deprotected, using a three-fold equivalent of acetic anhydride and Dipea in DMF.
The fully assembled peptides were dried under vacuum and cleaved for 3 h in a mixture of TFA:TIPS:water (95:2.5:2.5 v/v). The cleaved material was precipitated in cold diethyl ether overnight at -20 °C. T he insoluble peptide material was spun down at 4,000 rpm for 30 min at 4 °C and the pellet washed twice in cold diethyl ether prior to removal of the organic phase.
The crude peptide mixture was resuspended in 50% acetonitrile/0.1% TFA, filtered and freeze-dried prior to HPLC purification.
2 mg/mL for HPLC purification. […]
linear gradient of 5 to 40% of solvent B (90% acetonitrile / 9.9% water / 0.1% TFA) against solvent A (0.1% TFA in water) over 40 min. […]
mass spectrometry (LC-MS).
Affinity measurements. […]
Where low peptide solubility precluded ITC measurements, affinity was estimated by surface plasmon resonance (SPR) (Biacore T200, GE Healthcare) using a Mouse Antibody Capture kit (GE Healthcare). Synthetic peptides were resuspended in running buffer (20 mM HEPES, 150 mM NaCl, 3 mM EDTA, 0.05 % Tween20, pH 7.4) and injected over the 6D8-captured

[1] = Aggregation tendency of peptides on resuspension for HPLC purification; assay type: physicochemical; conditions: crude peptide resuspended for HPLC purification; had to be resuspended in 10 mM acetic acid at 1 mg/mL
Experimental: as §1
The fully assembled peptides were dried under vacuum and cleaved for 3 h in a mixture of TFA:TIPS:water (95:2.5:2.5 v/v). The cleaved material was precipitated in cold diethyl ether overnight at -20 °C. […]
MSP2 peptides were purified on a reverse-phase C18 column (Zorbax, 10 x 300 mm) using a linear gradient of 5 to 40% of solvent B (90% acetonitrile / 9.9% water / 0.1% TFA) against solvent A (0.1% TFA in water) over 40 min. The purity of MSP2 peptides was assessed by mass spectrometry (LC-MS).
Affinity measurements. Binding affinity constants of 6D8 antibodies (IgG and scFv) for synthetic peptides and recombinant allelic forms of MSP2 were determined by isothermal titration calorimetry (Microcal ITC-200, GE Healthcare) using either murine mAb 6D8 produced and affinity-purified by the Walter and Eliza Hall Institute antibody facility3 or 6D8 scFv. […]

Substance	Kd (mAb 6D8) [nM]	Tendency to aggregate [1]	Binding to immobilized mAb 6D8 (in words) (mAb 6D8)
Ac-FINNAYNMSIRRS-NH2 [MSP2_11-23]	6 ± 3	–	–
Ac-NAYNMSIRR-NH2 [MSP2_14-22]	6 ± 2	–	–
NNAYNMSI [MSP2_13-20, N-acetylated, C-amidated synthetic peptide, residues 13-20 of MSP2]	–	high tendency	–
YNMSIRRS [MSP2_16-23, N-acetylated, C-amidated synthetic peptide, residues 16-23 of MSP2]	–	–	abolishes binding
Ac-AYNMSIRRS-NH2 [MSP2_15-23]	34 ± 12	–	–
INNAYNMS [MSP2_12-19, N-acetylated, C-amidated synthetic peptide, residues 12-19 of MSP2]	–	high tendency	–
Ac-AYNMSIRR-NH2 [MSP2_15-22]	87 ± 21	–	detectable binding
NAYNMSIR [MSP2_14-21, N-acetylated, C-amidated synthetic peptide, residues 14-21 of MSP2]	–	–	abolishes binding
